{"source": "paper PMC7998731", "about": "“Pharmacokinetic Characterization of Supinoxin and Its Physiologically Based Pharmacokinetic Modeling in Rats” (Pharmaceutics, 2021)", "key": {"[1]": {"test": "Tissue distribution (tissue-to-plasma partition) in rats", "assay_type": "in vivo", "details": "male, rat; for Vd: oral; for AUC(0-t): mean, read-out: AUC0–24h"}, "[2]": {"target": "T1, CYP2D6 (Homo sapiens, UniProt P10635)", "T1 construct": "purchased Thermo Fisher Scientific", "T1 sequence (P10635 whole entry)": "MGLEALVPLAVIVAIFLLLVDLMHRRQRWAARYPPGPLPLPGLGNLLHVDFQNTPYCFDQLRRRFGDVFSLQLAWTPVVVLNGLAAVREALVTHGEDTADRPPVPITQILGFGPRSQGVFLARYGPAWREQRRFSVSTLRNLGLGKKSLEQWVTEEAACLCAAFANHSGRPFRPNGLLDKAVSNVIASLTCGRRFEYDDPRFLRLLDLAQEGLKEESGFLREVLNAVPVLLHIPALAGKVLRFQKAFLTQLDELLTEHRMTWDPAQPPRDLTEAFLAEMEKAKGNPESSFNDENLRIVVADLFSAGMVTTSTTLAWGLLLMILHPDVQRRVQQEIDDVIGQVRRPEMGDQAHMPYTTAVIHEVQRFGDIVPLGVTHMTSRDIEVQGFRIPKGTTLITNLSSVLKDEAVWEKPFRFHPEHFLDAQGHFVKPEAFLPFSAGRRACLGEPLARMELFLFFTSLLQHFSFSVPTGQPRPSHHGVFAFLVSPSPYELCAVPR", "test": "CYP inhibition, Vivid CYP450 screening kit", "assay_type": "in vitro ADME", "description": "(§1) CYP inhibition by supinoxin was studied using Vivid® CYP450 screening kits (Thermo Fisher Scientific, San Jose, CA, USA) following the manufacturer’s instructions. Briefly, Vivid® substrates were dissolved in acetonitrile yielding a stock solution of 2 mM. Fluorescent assays were conducted at room temperature using Costar 96-well black plates (#3915; Corning Costar, Acton, MA, USA). Supinoxin stock solution was diluted in reaction buffer to yield a 2.5X concentration solution (final concentration of 10 µM); aliquots (40 μL) of the solution were added to the wells. Subsequently, aliquots (50 μL) of reaction mixture consisting of P450 Baculosomes® Reagent and the NADPH regeneration system were also added to the wells and preincubated for 10 min, at room temperature, after which 10 μL of 1 mM NADP^+ and Vivid® substrate mixture were added. After a 30-min incubation, fluorescence was detected in end-point mode using a Varioscan™ Flash multimode reader (Thermo Fisher Scientific, San Jose, CA, USA). Background fluorescence was obtained from wells not containing CYP isozymes and was withdrawn before further reaction. The excitation and emission wavelengths of 485 nm/530 nm for Vivid® Green substrates, and 409 nm/460 nm for Vivid® Blue substrates were used. The inhibition percentage of the compound was determined in comparison to the vehicle (i.e., DMSO)-treated control wells. For isozymes with > 50% inhibition at 10 μM, we determined the concentration-dependent inhibition of supinoxin to obtain the IC50 value at concentrations ranging from 0.59 to 10 μM."}, "[3]": {"target": "T2, CYP1A2 (Homo sapiens, UniProt P05177)", "T2 construct": "purchased Thermo Fisher Scientific", "T2 sequence (P05177 1-516)": "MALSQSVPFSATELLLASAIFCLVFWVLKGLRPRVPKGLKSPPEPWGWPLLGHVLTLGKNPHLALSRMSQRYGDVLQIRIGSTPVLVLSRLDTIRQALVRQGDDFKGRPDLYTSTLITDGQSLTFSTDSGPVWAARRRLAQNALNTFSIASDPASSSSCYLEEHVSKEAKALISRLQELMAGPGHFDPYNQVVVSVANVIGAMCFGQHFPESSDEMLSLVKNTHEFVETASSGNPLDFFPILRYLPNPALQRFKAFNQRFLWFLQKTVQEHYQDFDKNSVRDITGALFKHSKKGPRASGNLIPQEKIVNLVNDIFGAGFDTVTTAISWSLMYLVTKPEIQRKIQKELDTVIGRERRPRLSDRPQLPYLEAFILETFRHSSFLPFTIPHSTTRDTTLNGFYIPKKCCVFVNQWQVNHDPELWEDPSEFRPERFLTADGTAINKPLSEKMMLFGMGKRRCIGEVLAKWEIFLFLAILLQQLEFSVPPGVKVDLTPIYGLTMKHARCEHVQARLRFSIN", "test": "CYP inhibition, Vivid CYP450 screening kit", "assay_type": "in vitro ADME", "description": "as §1"}, "[4]": {"target": "T3, CYP3A4 (Homo sapiens, UniProt P08684)", "T3 construct": "purchased Thermo Fisher Scientific", "T3 sequence (P08684 whole entry)": "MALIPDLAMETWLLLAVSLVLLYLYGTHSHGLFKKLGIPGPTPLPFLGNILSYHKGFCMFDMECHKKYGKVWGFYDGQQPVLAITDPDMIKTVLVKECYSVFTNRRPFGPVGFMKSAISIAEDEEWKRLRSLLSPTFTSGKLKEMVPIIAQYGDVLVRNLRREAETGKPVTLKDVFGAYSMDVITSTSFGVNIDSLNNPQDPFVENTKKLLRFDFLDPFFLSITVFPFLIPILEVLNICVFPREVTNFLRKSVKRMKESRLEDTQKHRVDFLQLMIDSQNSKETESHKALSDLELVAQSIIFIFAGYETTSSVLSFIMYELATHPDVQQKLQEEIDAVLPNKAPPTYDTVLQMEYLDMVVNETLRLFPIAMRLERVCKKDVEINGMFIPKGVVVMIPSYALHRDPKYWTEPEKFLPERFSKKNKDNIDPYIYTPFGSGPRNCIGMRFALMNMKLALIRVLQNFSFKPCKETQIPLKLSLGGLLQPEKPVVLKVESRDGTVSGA", "test": "CYP inhibition, Vivid CYP450 screening kit", "assay_type": "in vitro ADME", "description": "as §1"}, "[5]": {"target": "T4, CYP2C19 (Homo sapiens, UniProt P33261)", "T4 construct": "purchased Thermo Fisher Scientific", "T4 sequence (P33261 whole entry)": "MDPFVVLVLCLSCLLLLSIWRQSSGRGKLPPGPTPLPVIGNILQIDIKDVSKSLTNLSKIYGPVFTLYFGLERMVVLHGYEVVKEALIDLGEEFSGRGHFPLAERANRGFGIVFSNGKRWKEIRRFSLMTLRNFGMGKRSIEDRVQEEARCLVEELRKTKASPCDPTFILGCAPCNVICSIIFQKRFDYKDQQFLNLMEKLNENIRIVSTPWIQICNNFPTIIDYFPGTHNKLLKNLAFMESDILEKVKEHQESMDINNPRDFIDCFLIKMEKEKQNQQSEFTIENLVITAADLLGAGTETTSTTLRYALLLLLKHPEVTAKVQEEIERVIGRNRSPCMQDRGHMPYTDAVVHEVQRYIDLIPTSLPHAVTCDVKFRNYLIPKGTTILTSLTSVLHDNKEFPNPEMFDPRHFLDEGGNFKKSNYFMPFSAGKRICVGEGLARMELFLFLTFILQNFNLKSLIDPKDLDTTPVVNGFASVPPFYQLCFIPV", "test": "CYP inhibition, Vivid CYP450 screening kit", "assay_type": "in vitro ADME", "description": "as §1"}, "[6]": {"target": "T5, CYP2C9 (Homo sapiens, UniProt P11712)", "T5 construct": "purchased Thermo Fisher Scientific", "T5 sequence (P11712 whole entry)": "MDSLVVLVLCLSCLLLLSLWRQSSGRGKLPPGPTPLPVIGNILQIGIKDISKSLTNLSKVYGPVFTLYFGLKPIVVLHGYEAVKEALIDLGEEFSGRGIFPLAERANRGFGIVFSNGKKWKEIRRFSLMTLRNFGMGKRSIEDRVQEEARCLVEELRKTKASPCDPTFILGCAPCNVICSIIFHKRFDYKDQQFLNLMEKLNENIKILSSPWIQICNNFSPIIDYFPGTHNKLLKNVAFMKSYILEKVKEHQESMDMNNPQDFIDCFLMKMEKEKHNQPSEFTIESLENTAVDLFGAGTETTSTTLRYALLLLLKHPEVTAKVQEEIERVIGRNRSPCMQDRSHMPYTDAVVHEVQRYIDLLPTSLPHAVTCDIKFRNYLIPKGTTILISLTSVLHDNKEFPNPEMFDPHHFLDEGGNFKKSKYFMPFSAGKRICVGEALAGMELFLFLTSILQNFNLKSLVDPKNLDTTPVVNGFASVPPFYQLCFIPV", "test": "CYP inhibition, Vivid CYP450 screening kit", "assay_type": "in vitro ADME", "description": "as §1"}, "[7]": {"test": "Transport of supinoxin in Caco-2 cells (bidirectional permeability)", "assay_type": "in vitro ADME", "details": "human", "description": "The Caco-2 intestinal epithelial cell line (ATCC® HTB-37™) purchased from American Type Culture Collection (ATCC, Manassas, VA, USA) was cultured and maintained in Dulbecco’s modified Eagle medium (DMEM) containing 10% fetal bovine serum, 100 U/mL penicillin, and 0.1 mg/mL streptomycin under humidified atmosphere of air containing 5% CO2 at 37 °C. Caco-2 cells were seeded at a density of 6 × 10^4 cells/cm^2 onto polyethylene membranes of transwell plates (Corning Costar, Cambridge, MA, USA). The medium was replaced on alternate days after seeding, and cell monolayers were used for the transport assay after approximately 21 days of culture. Trans-epithelial electrical resistance (TEER) values of the Caco-2 monolayers were measured with an EVOM epithelial tissue voltmeter (World Precision Instruments, Sarasota, FL, USA), and cells with TEER greater than 300 Ω were used for the experiments. Cell monolayers were first rinsed three times with transport buffer (Hank’s balanced salt solution supplemented with 10 mM HEPES) and preincubated for 30 min at 37 °C. To measure the bidirectional transport of the compound, a transport buffer containing 1 µM supinoxin was added to the respective donor compartments (the apical and basolateral sides for absorptive and secretory transport assays, respectively). Samples (200 µL) were collected at 30, 60, 90, and 120 min, and an identical volume of fresh buffer was replenished. The samples were then subjected to LC–MS/MS analysis and concentrations of the samples were determined. After the final sampling from both compartments, we measured the TEER of the monolayers to ensure no possible adverse effects induced by the experimental procedures and then estimated the apparent permeability coefficient of supinoxin from the compound’s time-dependent accumulation (dQ/dt) in the receiver compartments using the following equation: Papp = dQ/dt × 1/(A × C0)(1) where dQ/dt is the rate of transport, A is the surface area of the filter, and C0 is the initial concentration in the donor chamber."}}, "note": "Where two headings read alike, the source gives them in different places.", "data": [{"smiles": "COc1cc(OC)cc(N2CCN(C(=O)Nc3nc4cc(F)ccc4nc3OC)CC2)c1", "note": "[supinoxin, 1-(3,5-Dimethoxyphenyl)-4-[(6-Fluoro-2-Methoxyquinoxalin-3-yl) Aminocarbonyl] Piperazine]", "values": [{"measurement": "Vd", "setting": "[1]; Sprague Dawley, plasma, 5 mg/kg, estimated Kp and tissue volumes from literature, read-out: steady state volume of distribution calculated from Kp and tissue volumes", "value": 1.92, "unit": "L"}, {"measurement": "AUC(0-t)", "setting": "[1]; Sprague Dawley, Adipose tissue, rats, oral administration (5 mg/kg)", "value": 111000, "unit": "ng·h/mL"}, {"measurement": "AUC(0-t)", "setting": "[1]; Sprague Dawley, Spleen, rats, oral administration (5 mg/kg)", "value": 3310, "unit": "ng·h/mL"}, {"measurement": "AUC(0-t)", "setting": "[1]; Sprague-Dawley, kidney, Kidneys, rats, oral administration (5 mg/kg)", "value": 11100, "unit": "ng·h/mL"}, {"measurement": "Kp", "setting": "[1]; Sprague-Dawley, kidney, Kidneys, rats, oral administration (5 mg/kg), read-out: Kp (tissue to plasma AUC ratio)", "value": 2.18}, {"measurement": "AUC(0-t)", "setting": "[1]; Sprague-Dawley, lung, Lungs, rats, oral administration (5 mg/kg)", "value": 5520, "unit": "ng·h/mL"}, {"measurement": "Kp", "setting": "[1]; Sprague-Dawley, lung, Lungs, rats, oral administration (5 mg/kg), read-out: Kp (tissue to plasma AUC ratio)", "value": 1.08}, {"measurement": "AUC(0-t)", "setting": "[1]; Sprague-Dawley, muscle, Muscles, rats, oral administration (5 mg/kg)", "value": 6130, "unit": "ng·h/mL"}, {"measurement": "Kp", "setting": "[1]; Sprague-Dawley, muscle, Muscles, rats, oral administration (5 mg/kg), read-out: Kp (tissue to plasma AUC ratio)", "value": 1.2}, {"measurement": "Vd", "setting": "[1]; Sprague-Dawley, 5 mg/kg, sum of Kp × Volume over plasma and tissues, read-out: Vd", "value": 1.92, "unit": "L/kg"}, {"measurement": "Kp", "setting": "[1]; Sprague-Dawley, several tissues (range over tissues), intravenous, 5 mg/kg, range over tissues, PBPK input parameter, Determined, read-out: Tissue: Plasma partition coefficients", "value": "0.649 to 21.7"}, {"measurement": "AUC(0-t)", "setting": "[1]; Sprague-Dawley, Adipose tissue, rats, oral administration (5 mg/kg)", "value": 111000, "unit": "ng·h/mL"}, {"measurement": "Kp", "setting": "[1]; Sprague-Dawley, Adipose tissue, rats, oral administration (5 mg/kg), read-out: Kp (tissue to plasma AUC ratio)", "value": 21.7}, {"measurement": "AUC(0-t)", "setting": "[1]; Sprague-Dawley, Brain, rats, oral administration (5 mg/kg)", "value": 4350, "unit": "ng·h/mL"}, {"measurement": "Kp", "setting": "[1]; Sprague-Dawley, Brain, rats, oral administration (5 mg/kg), read-out: Kp (tissue to plasma AUC ratio)", "value": 0.85}, {"measurement": "AUC(0-t)", "setting": "[1]; Sprague-Dawley, Gut, rats, oral administration (5 mg/kg)", "value": 25300, "unit": "ng·h/mL"}, {"measurement": "Kp", "setting": "[1]; Sprague-Dawley, Gut, rats, oral administration (5 mg/kg), read-out: Kp (tissue to plasma AUC ratio)", "value": 4.96}, {"measurement": "AUC(0-t)", "setting": "[1]; Sprague-Dawley, Heart, rats, oral administration (5 mg/kg)", "value": 3550, "unit": "ng·h/mL"}, {"measurement": "Kp", "setting": "[1]; Sprague-Dawley, Heart, rats, oral administration (5 mg/kg), read-out: Kp (tissue to plasma AUC ratio)", "value": 0.7}, {"measurement": "AUC(0-t)", "setting": "[1]; Sprague-Dawley, Liver, rats, oral administration (5 mg/kg)", "value": 24300, "unit": "ng·h/mL"}, {"measurement": "Kp", "setting": "[1]; Sprague-Dawley, Liver, rats, oral administration (5 mg/kg), read-out: Kp (tissue to plasma AUC ratio)", "value": 4.76}, {"measurement": "AUC(0-t)", "setting": "[1]; Sprague-Dawley, Plasma, rats, oral administration (5 mg/kg)", "value": 5110, "unit": "ng·h/mL"}, {"measurement": "Kp", "setting": "[1]; Sprague-Dawley, Plasma, rats, oral administration (5 mg/kg), read-out: Kp (tissue to plasma AUC ratio)", "value": 1}, {"measurement": "AUC(0-t)", "setting": "[1]; Sprague-Dawley, Spleen, rats, oral administration (5 mg/kg)", "value": 3310, "unit": "ng·h/mL"}, {"measurement": "Kp", "setting": "[1]; Sprague-Dawley, Spleen, rats, oral administration (5 mg/kg), read-out: Kp (tissue to plasma AUC ratio)", "value": 0.65}, {"measurement": "AUC(0-t)", "setting": "[1]; Sprague-Dawley, Testes, rats, oral administration (5 mg/kg)", "value": 5370, "unit": "ng·h/mL"}, {"measurement": "Kp", "setting": "[1]; Sprague-Dawley, Testes, rats, oral administration (5 mg/kg), read-out: Kp (tissue to plasma AUC ratio)", "value": 1.05}, {"measurement": "IC50", "setting": "[2]; human recombinant CYP2D6", "value": "> 10", "unit": "µM"}, {"measurement": "inhibition at 30 min, 10 µM", "setting": "[2]; recombinant human CYP2D6 (P450 Baculosomes), probe Vivid substrate, human recombinant CYP2D6, 10 µM, read-out: inhibition compared to the vehicle control", "value": "< 0.01", "unit": "%"}, {"measurement": "IC50", "setting": "[3]; human recombinant CYP1A2", "value": "> 10", "unit": "µM"}, {"measurement": "inhibition at 30 min, 10 µM", "setting": "[3]; recombinant human CYP1A2 (P450 Baculosomes), probe Vivid substrate, human recombinant CYP1A2, 10 µM, read-out: inhibition compared to the vehicle control", "value": 5.9, "unit": "%"}, {"measurement": "IC50", "setting": "[4]; human recombinant CYP3A4, 0.59 to 10 μM", "value": 4.66, "unit": "µM"}, {"measurement": "inhibition at 30 min, 10 µM", "setting": "[4]; recombinant human CYP3A4 (P450 Baculosomes), probe Vivid substrate, human recombinant CYP3A4, 10 µM", "value": "> 50", "unit": "%"}, {"measurement": "IC50", "setting": "[5]; human recombinant CYP2C19", "value": "> 10", "unit": "µM"}, {"measurement": "inhibition at 30 min, 10 µM", "setting": "[5]; recombinant human CYP2C19 (P450 Baculosomes), probe Vivid substrate, human recombinant CYP2C19, 10 µM, read-out: inhibition compared to the vehicle control", "value": 35.7, "unit": "%"}, {"measurement": "IC50", "setting": "[6]; human recombinant CYP2C9", "value": "> 10", "unit": "µM"}, {"measurement": "inhibition at 30 min, 10 µM", "setting": "[6]; recombinant human CYP2C9 (P450 Baculosomes), probe Vivid substrate, human recombinant CYP2C9, 10 µM, read-out: inhibition compared to the vehicle control", "value": 16.2, "unit": "%"}, {"measurement": "Papp A→B at 120 min, 1 µM", "setting": "[7]; Caco-2, Caco-2 cell monolayers, supinoxin 1 µM, read-out: apical to basolateral apparent permeability coefficient", "value": "18.5 ± 2.4", "unit": "×10⁻⁶ cm/s"}, {"measurement": "Papp A→B at 120 min, 1 µM", "setting": "[7]; Caco-2, PBPK input parameter, Determined, read-out: Caco-2 permeability", "value": 18.5, "unit": "×10⁻⁶ cm/s"}, {"measurement": "efflux ratio at 120 min, 1 µM", "setting": "[7]; Caco-2 cell monolayers", "value": 1.24}, {"measurement": "Papp B→A at 120 min, 1 µM", "setting": "[7]; Caco-2 cell monolayers, supinoxin 1 µM, read-out: basolateral to apical apparent permeability coefficient", "value": "22.6 ± 1.8", "unit": "×10⁻⁶ cm/s"}]}]}
